Results as given in paper PMC3293801, “Differential Contribution of the Repeats to Heparin Binding of HBHA, a Major Adhesin of Mycobacterium tuberculosis” (PLoS ONE, 2012).

Molecular target: T1, MalE-Ct (Mycobacterium tuberculosis, UniProt P9WIP9)
T1 construct: gene hbhA; pMAL+3R1+2R2, E. coli B834; 15N-labelled; MBP kept
Assay type: binding
Conditions: 20 mM phosphate pH 6.8, 0.15 M NaCl, 20°C, 900 MHz, 60 µM protein; apparent, single site

T1 sequence (P9WIP9 161-199): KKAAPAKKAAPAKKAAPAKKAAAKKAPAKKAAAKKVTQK

Row | Substance | Kd
1 | dp10 heparin-derived oligosaccharide | 79.4 ± 23 µM
2 | dp14 heparin-derived oligosaccharide | 58.8 ± 14 µM
